Data set [1] relates to Pseudomonas cepacia IID 1340. Description: Minimum Inhibitory Concentration (standard method of the Japan Society of Chemotherapy). It is filed as cell-based. The settings on record: Burkholderia cepacia, read-out: Minimum Inhibitory Concentration (MIC). The protocol:
(§1) Determined by the standard method of the Japan Society of Chemotherapy: i
(§2) MullerHinton bouillon, 10^6 /ml of bacteria were seeded and incubated
(§3) at 37° C. for 18 hours.

For another data set, the system named is Escherichia coli NIHJ. The description is as above. The format is cell-based. The settings on record: Muller-Hinton bouillon, 10^6/ml bacteria, 37° C., 18 hours. The protocol:
as §1, §2, §3

Data set [2] concerns Streptococcus faecalis ATCC 19433. The description is as above. The format is cell-based. The settings on record: Enterococcus faecalis, read-out: Minimum Inhibitory Concentration (MIC). As for the experimental part: as §1, §2, §3
Data set [3] has as its system Serratia marcessens 13001. The data set is described as above. The format is cell-based. The settings on record: Muller-Hinton bouillon, 10^6/ml bacteria, 37° C., 18 hours. The protocol: as §1, §2, §3
Data set [4] relates to Staphylococcus epidermidis 56556. The data set is described as above. The format is cell-based. The settings on record: read-out: Minimum Inhibitory Concentration (MIC). The protocol:
as §1, §2, §3

For data set [5], the system named is Pseudomonas aeruginosa 2131. Described as above. The settings on record: read-out: Minimum Inhibitory Concentration (MIC). The format is cell-based. As for the experimental part: as §1, §2, §3
The test system of data set [6] is Staphylococcus aureus Smith. Described as above. It is filed as cell-based. The settings on record: read-out: Minimum Inhibitory Concentration (MIC). The protocol:
as §1, §2, §3

The subject of data set [7] is Pseudomonas maltophilia IID 1275. The description is as above. It is filed as cell-based. The settings on record: Stenotrophomonas maltophilia, read-out: Minimum Inhibitory Concentration (MIC). The protocol: as §1, §2, §3
Another data set relates to Proteus vulgaris 3167. Described as above. The format is cell-based. The settings on record: read-out: Minimum Inhibitory Concentration (MIC). As for the experimental part:
as §1, §2, §3

Data set [8] is described as follows: pharmacokinetic properties: blood level, intestinal absorption (statement in words). The settings on record: in comparison with cyprofloxacin. It is filed as in vivo.
In data set [9] the test system is gram-positive and gram-negative bacteria. Nature of the data set: antibacterial activity (statement in words). The format is cell-based.
Where [10] appears, read: IID1340, Pseudomonas cepacia IID 1340, Muller-Hinton bouillon, 10^6/ml bacteria, 37° C., 18 hours.
Setting [11] is: ATCC19433, Streptococcus faecalis ATCC 19433, Muller-Hinton bouillon, 10^6/ml bacteria, 37° C., 18 hours.
The mark [12] stands for this setting: Staphylococcus epidermidis 56556, Muller-Hinton bouillon, 10^6/ml bacteria, 37° C., 18 hours.
[13] abbreviates: Pseudomonas aeruginosa 2131, Muller-Hinton bouillon, 10^6/ml bacteria, 37° C., 18 hours.
The mark [14] stands for this setting: Staphylococcus aureus Smith, Muller-Hinton bouillon, 10^6/ml bacteria, 37° C., 18 hours.
Where [15] appears, read: IID1275, Pseudomonas maltophilia IID 1275, Muller-Hinton bouillon, 10^6/ml bacteria, 37° C., 18 hours.
The mark [16] stands for this setting: Proteus vulgaris 3167, Muller-Hinton bouillon, 10^6/ml bacteria, 37° C., 18 hours.

Values after ≈ are worked out from the molar mass of the structure shown. Read-outs that look alike come from different tables or passages of the source.

Eight compounds from patent US4871852A, “Quinoline-carboxylic acid derivatives” (Daiichi Seiyaku Co., Ltd., priority 1984, dated 1989) can be followed below.

Take `O=C(O)c1cn(C2CC2)c2c(F)c(N3CCNCC3)c(F)cc2c1=O` [Ba-4, 1cyclopropyl-6,8-difluoro-1,4-dihydro-7-(1-piperazinyl)-4-oxoquinoline-3-carboxylic acid, reference compound]: the MIC in data set [1] (setting [10]) was 0.39 mg/L (≈ 1.12 µM); against Escherichia coli NIHJ, at most 0.05 mg/L; in data set [2] (setting [11]), 0.78 mg/L (≈ 2.23 µM); in data set [3], at most 0.05 mg/L; in data set [4] (setting [12]), 0.2 mg/L (≈ 0.573 µM); in data set [5] (setting [13]) it was at most 0.05 mg/L. The MIC was 0.2 mg/L (≈ 0.573 µM) in data set [6] (setting [14]), 0.39 mg/L (≈ 1.12 µM) in [7] (setting [15]) and at most 0.05 mg/L in the data set on Proteus vulgaris 3167 (setting [16]).
Turning to `CN1CCN(c2cc3c(cc2F)c(=O)c(C(=O)O)cn3C2CC2)CC1` [Ba-1, 1cyclopropyl-6-fluoro-1,4-dihydro-7-(4-methyl-1-piperazinyl)-4-oxoquinoline-3-carboxylic acid, reference compound], the MIC in [1] (setting [10]) was 0.78 mg/L (≈ 2.26 µM); against Escherichia coli NIHJ, at most 0.05 mg/L; in data set [2] (setting [11]) it was 0.78 mg/L (≈ 2.26 µM); in [3] it was 0.1 mg/L (≈ 0.29 µM); in data set [4] (setting [12]), 0.39 mg/L (≈ 1.13 µM); in [5] (setting [13]) it was 0.1 mg/L (≈ 0.29 µM). For the same compound, the MIC in data set [6] (setting [14]) is 0.2 mg/L (≈ 0.579 µM); in data set [7] (setting [15]), 0.2 mg/L (≈ 0.579 µM); with Proteus vulgaris 3167 (setting [16]) it was at most 0.05 mg/L.
In the case of `O=C(O)c1cn([C@@H]2C[C@@H]2F)c2cc(N3CCNCC3)c(F)cc2c1=O` (relative stereo) [Ia-2, 1-(cis-2-fluorocyclopropyl)-6-fluoro-1,4-dihydro-7-(1-piperazinyl)-4-oxoquinoline-3-carboxylic acid], the MIC in data set [1] (setting [10]) is 1.56 mg/L (≈ 4.47 µM); against Escherichia coli NIHJ, at most 0.05 mg/L; in data set [2] (setting [11]), 1.56 mg/L (≈ 4.47 µM); in data set [3], at most 0.05 mg/L; in data set [4] (setting [12]), 0.2 mg/L (≈ 0.573 µM); in [5] (setting [13]), at most 0.05 mg/L. Moreover, the MIC was 0.1 mg/L (≈ 0.286 µM) in data set [6] (setting [14]), 0.78 mg/L (≈ 2.23 µM) in data set [7] (setting [15]) and at most 0.05 mg/L in the data set on Proteus vulgaris 3167 (setting [16]).
As for `CN1CCN(c2cc3c(cc2F)c(=O)c(C(=O)O)cn3[C@@H]2C[C@@H]2F)CC1` (relative stereo) [Ia-1, 1-(cis-2-fluorocyclopropyl)-6-fluoro-1,4-dihydro-7-(4-methyl-1-piperazinyl)-4-oxoquinoline-3-carboxylic acid], in data set [8], the blood level result is reported as “high blood level”. Also, the intestinal absorption entry in [8] was “good intestinal absorption”. In addition, the MIC is 0.2 mg/L (≈ 0.55 µM) in data set [1] (setting [10]); at most 0.05 mg/L against Escherichia coli NIHJ; 0.78 mg/L (≈ 2.15 µM) in data set [2] (setting [11]); at most 0.05 mg/L in [3]; 0.1 mg/L (≈ 0.275 µM) in data set [4] (setting [12]); 0.2 mg/L (≈ 0.55 µM) in [5] (setting [13]). Besides, the results for the MIC (in data set [6] (setting [14]); in data set [7] (setting [15]); with Proteus vulgaris 3167 (setting [16])) were at most 0.05 mg/L, 0.2 mg/L (≈ 0.55 µM) and at most 0.05 mg/L, respectively. Also, the antibacterial activity result in data set [9] is on record as “strong antibacterial activity”.
For the compound `O=C(O)c1cn([C@@H]2C[C@@H]2F)c2c(F)c(N3CCNCC3)c(F)cc2c1=O` (relative stereo) [Ib-2, 1-(2-fluorocyclopropyl)-6,8-difluoro-1,4-dihydro-7-(1-piperazinyl)-4-oxoquinoline-3-carboxylic acid], the MIC in [1] (setting [10]) was 1.56 mg/L (≈ 4.25 µM); against Escherichia coli NIHJ, at most 0.05 mg/L; in data set [2] (setting [11]) it was 1.56 mg/L (≈ 4.25 µM); in data set [3], at most 0.05 mg/L; in [4] (setting [12]), 0.2 mg/L (≈ 0.544 µM); in data set [5] (setting [13]) it was at most 0.05 mg/L. Moreover, the MIC in data set [6] (setting [14]) is 0.1 mg/L (≈ 0.272 µM); in [7] (setting [15]), 0.78 mg/L (≈ 2.12 µM); in the data set with Proteus vulgaris 3167 (setting [16]) it was at most 0.05 mg/L.
As to `O=C(O)c1cn(C2CC2)c2cc(N3CCNCC3)c(F)cc2c1=O` [Ba-2, 1-cyclopropyl-6-fluoro-1,4-dihydro-7-(1-piperazinyl)-4-oxoquinoline-3-carboxylic acid, reference compound], the MIC is 3.13 mg/L (≈ 9.45 µM) in data set [1] (IID1340, 18 h); at most 0.05 mg/L against Escherichia coli NIHJ; 0.78 mg/L (≈ 2.35 µM) in data set [2] (ATCC19433, 18 h); at most 0.05 mg/L in data set [3]; 0.2 mg/L (≈ 0.604 µM) in [4] (Staphylococcus epidermidis, 56556, 18 h); at most 0.05 mg/L in data set [5] (Pseudomonas aeruginosa, 2131, 18 h). In addition, the MIC is 0.1 mg/L (≈ 0.302 µM) in data set [6] (Staphylococcus aureus, 18 h); 0.78 mg/L (≈ 2.35 µM) in data set [7] (IID1275, 18 h); at most 0.05 mg/L in the data set on Proteus vulgaris 3167 (Proteus vulgaris, 3167, 18 h).
For the compound `CN1CCN(c2c(F)cc3c(=O)c(C(=O)O)cn([C@@H]4C[C@@H]4F)c3c2F)CC1` (relative stereo) [Ib-1, 1-(2-fluorocyclopropyl)-6,8-difluoro-1,4-dihydro-7-(4-methyl-1-piperazinyl)-4-oxoquinoline-3-carboxylic acid], the MIC in data set [1] (setting [10]) is 0.78 mg/L (≈ 2.05 µM); in the data set on Escherichia coli NIHJ it was at most 0.05 mg/L; in data set [2] (setting [11]), 0.78 mg/L (≈ 2.05 µM); in data set [3], at most 0.05 mg/L; in data set [4] (setting [12]) it was 0.2 mg/L (≈ 0.524 µM); in [5] (setting [13]), 0.1 mg/L (≈ 0.262 µM). The values for the MIC (in data set [6] (setting [14]); in data set [7] (setting [15]); in the data set with Proteus vulgaris 3167 (setting [16])) were 0.1 mg/L (≈ 0.262 µM), 0.1 mg/L (≈ 0.262 µM) and at most 0.05 mg/L, respectively.
As to `CN1CCN(c2c(F)cc3c(=O)c(C(=O)O)cn(C4CC4)c3c2F)CC1` [Ba-3, 1cyclopropyl-6,8-difluoro-1,4-dihydro-7-(4-methyl-1-piperazinyl)-4-oxoquinoline-3-carboxylic acid, reference compound], the MIC in data set [1] (setting [10]) is 0.78 mg/L (≈ 2.15 µM); in the data set on Escherichia coli NIHJ, at most 0.05 mg/L; in [2] (setting [11]) it was 0.78 mg/L (≈ 2.15 µM); in data set [3], at most 0.05 mg/L; in data set [4] (setting [12]) it was 0.2 mg/L (≈ 0.55 µM); in [5] (setting [13]) it was 0.2 mg/L (≈ 0.55 µM). Also, the MIC in data set [6] (setting [14]) was 0.2 mg/L (≈ 0.55 µM); in [7] (setting [15]) it was at most 0.05 mg/L; with Proteus vulgaris 3167 (setting [16]), at most 0.05 mg/L.
